# Measured values taken from patent US20030129250A1, “Particulate compositions for improving solubility of poorly soluble agents” (Advanced Inhalation Research Inc., priority 2001, published 2003).
# Assay: Initial screening for poor solubility in aqueous media
# Description: Many potential candidates were screened during this process. […] This list was then prioritized based on aqueous solubility, safety, and cost. […] This test was done by mixing […] of PBS and adding 10 mg of bulk drug. […] If the drug fully dissolved at this concentration, it was not considered for the testing.
# [1] = PBS pH 7.4, 10 mg bulk drug in 0.3-1.0 L, criterion: no more soluble than 20 mg/L
Structure (SMILES),poor solubility screening in aqueous media (pH 7.4),poor solubility screening in aqueous media [1]
"COc1ccc(Cl)cc1C(=O)NCCc1ccc(S(=O)(=O)NC(=O)NC2CCCCC2)cc1 [glyburide, 1-[[p-[2-(5-chloro-o-anisamido)ethyl]phenyl]-sulfonyl]-3-cyclohexylurea]",passed the initial screening,
Cc1c(OCC(F)(F)F)ccnc1C[S+]([O-])c1nc2ccccc2[nH]1 (stereo not drawn) [lansoprazole],,passed the initial screening
CN1C(C(=O)Nc2ccccn2)=C(O)c2ccccc2S1(=O)=O [piroxicam],,passed the initial screening
